# Test results reported in PubChem BioAssay AID493139 (Sanford-Burnham Center for Chemical Genomics, 2011).
# Where “and” joins values, the source holds several entries; their conditions need not be identical. Equal entries are not always repeated. Calls of active or inactive are those of the source. No rule for the calls is given here.
# Target: Alkaline phosphatase, germ cell type (Homo sapiens) (UniProt P10696)
# Assay: effect of analogs on PLAP-like activity, SAR follow-up, selectivity assay for mouse IAP activator project, biochemical, human placental-like ALPPL2 isozyme (AID 493139)
# Details: purified human placental-like alkaline phosphatase, enzymatic activity
# Alkaline phosphatase, germ cell type (Homo sapiens), sequence (P10696 whole entry, looked up): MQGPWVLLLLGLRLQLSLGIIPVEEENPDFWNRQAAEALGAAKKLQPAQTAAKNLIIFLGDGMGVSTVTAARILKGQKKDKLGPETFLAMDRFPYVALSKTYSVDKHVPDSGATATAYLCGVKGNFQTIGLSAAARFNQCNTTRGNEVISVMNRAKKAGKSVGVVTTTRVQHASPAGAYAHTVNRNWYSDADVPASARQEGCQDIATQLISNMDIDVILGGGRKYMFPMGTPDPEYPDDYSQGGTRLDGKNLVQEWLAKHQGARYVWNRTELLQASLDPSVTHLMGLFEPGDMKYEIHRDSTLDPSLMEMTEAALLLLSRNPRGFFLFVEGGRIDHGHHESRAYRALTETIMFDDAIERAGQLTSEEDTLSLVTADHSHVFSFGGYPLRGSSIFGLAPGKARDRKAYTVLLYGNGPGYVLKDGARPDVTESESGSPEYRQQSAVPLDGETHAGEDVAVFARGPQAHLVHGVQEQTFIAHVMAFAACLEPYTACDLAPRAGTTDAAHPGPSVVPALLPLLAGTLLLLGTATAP
row,Compound,IC50 (inhibition of PLAP activity)
1,N#Cc1cccc(NC(=O)CSc2sc3c(O)cc(=O)[nH]c3c2C#N)c1,> 100 µM (inactive)
2,COc1ccc(N2CCN(C(=O)CN3C(=O)/C(=C\c4ccco4)SC3=S)CC2)cc1,> 100 µM (inactive)
3,O=C(CN1C(=O)/C(=C\c2ccco2)SC1=S)Nc1cccc(C(=O)O)c1,> 100 µM (inactive)
4,COc1ccc(NC(=O)CSc2sc3c(O)cc(=O)[nH]c3c2C#N)c(OC)c1,> 100 µM (inactive)
5,CN(C(=O)CN1C(=O)/C(=C\c2ccco2)SC1=S)C1CCS(=O)(=O)C1 (stereo unspecified),> 100 µM (inactive)
6,NS(=O)(=O)c1ccc(-c2ccc(/C=C3\SC(=S)N(C4CCS(=O)(=O)C4)C3=O)o2)cc1 (stereo unspecified),> 100 µM (inactive)
7,FC(F)(F)c1cccc(NC(=S)NCCC(c2ccccc2)c2ccccc2)c1,63.5 µM
8,O=C(CCN1C(=O)/C(=C/c2ccco2)SC1=S)Nc1ccc(O)cc1C(=O)O,> 100 µM (inactive)
9,CC(C(=O)NCCc1ccc(O)c(O)c1)N1C(=O)/C(=C\c2ccco2)SC1=S (stereo unspecified),> 100 µM (inactive)
10,N#Cc1c(SCC(=O)Nc2cccc(F)c2)sc2c(O)cc(=O)[nH]c12,> 100 µM (inactive)
11,O=C(N/N=C/C1CC2CCC1C2)c1cc(O)c(O)c(O)c1 (stereo unspecified),> 100 µM (inactive)
12,CC(C(=O)Nc1cccc(C(=O)O)c1)N1C(=O)/C(=C\c2ccco2)SC1=S (stereo unspecified),> 100 µM (inactive)
13,O=C(N/N=C/c1ccco1)c1cc(O)c(O)c(O)c1,> 100 µM (inactive)
14,S=C(NCCC(c1ccccc1)c1ccccc1)Nc1ccc(Cl)cc1Cl,72.1 µM
15,O=C(N/N=C/c1ccsc1)c1cc(O)c(O)c(O)c1,> 100 µM (inactive)
16,O=C(O)CC(C(=O)O)N1C(=O)/C(=C/c2ccc(-c3nc4ccccc4s3)o2)SC1=S (stereo unspecified),> 100 µM (inactive)
17,O=C(CN1C(=O)/C(=C/c2ccco2)SC1=S)Nc1ccc(C(=O)O)cc1,> 100 µM (inactive)
18,O=C(NN=Cc1cccnc1)c1cc(O)c(O)c(O)c1,> 100 µM (inactive)
19,O=C(N/N=C/c1ccc(F)cc1)c1cc(O)c(O)c(O)c1,> 100 µM (inactive)

row,Compound,IC50 (inhibition of PLAP activity)
1,O=C(CCN1C(=O)/C(=C/c2ccco2)SC1=S)Nc1ccc(C(=O)O)c(O)c1,> 100 µM (inactive)
2,COc1cc(C(=O)NNC(=S)NC(=O)c2ccc(Cl)cc2)cc(OC)c1OC,22 µM
3,Cc1ccc(NC(=O)CSc2sc3c(O)cc(=O)[nH]c3c2C#N)c(F)c1,> 100 µM (inactive)
4,COc1cccc(/C=N/NC(=O)c2cc(O)c(O)c(O)c2)c1,> 100 µM (inactive)
5,CC(C)N1CCC(=NNC(=O)c2cc(O)c(O)c(O)c2)CC1,> 100 µM (inactive) and 61.4 µM
6,N#Cc1c(SCC(=O)NCc2ccc3c(c2)OCO3)sc2c(O)cc(=O)[nH]c12,> 100 µM (inactive)
7,COc1cc(C(=O)NN=Cc2ccccn2)cc(OC)c1OC,31.3 µM
8,O=C(CN1C(=O)/C(=C\c2ccco2)SC1=S)Nc1ccccc1C(=O)O,> 100 µM (inactive)
9,O=C(CN1C(=O)/C(=C/c2ccco2)SC1=S)Nc1ccc2nccnc2c1,> 100 µM (inactive)
10,Cc1csc(NC(=O)CSc2sc3c(O)cc(=O)[nH]c3c2C#N)n1,> 100 µM (inactive)
11,O=C(CN1C(=O)/C(=C/c2ccco2)SC1=S)NC1CCS(=O)(=O)C1 (stereo unspecified),> 100 µM (inactive)
12,O=C(N/N=C/C1CC=CCC1)c1cc(O)c(O)c(O)c1 (stereo unspecified),> 100 µM (inactive)
13,N#Cc1c(SCC(=O)Nc2ccc(Cl)cc2Cl)sc2c(O)cc(=O)[nH]c12,> 100 µM (inactive)
14,CCN(CC)C(=O)CSc1sc2c(O)cc(=O)[nH]c2c1C#N,> 100 µM (inactive)
15,O=C(CN1C(=O)/C(=C\c2ccco2)SC1=S)Nc1ccc(O)cc1C(=O)O,> 100 µM (inactive)
16,CC(C(=O)Nc1ccccc1C(=O)O)N1C(=O)/C(=C\c2ccco2)SC1=S (stereo unspecified),> 100 µM (inactive)
17,N#Cc1c(SCC(=O)Nc2nncs2)sc2c(O)cc(=O)[nH]c12,> 100 µM (inactive)
18,CC(C(=O)Nc1ccc(C(=O)O)cc1)N1C(=O)/C(=C\c2ccco2)SC1=S (stereo unspecified),21.9 µM
19,C/C(=N\NC(=O)c1cc(O)c(O)c(O)c1)c1ccncc1,> 100 µM (inactive)

# Further lines, results first:
row,IC50 (inhibition of PLAP activity),Compound
1,> 100 µM (inactive),Cc1ccc(NC(=O)CCNS(=O)(=O)c2ccc3[nH]c(=O)oc3c2)cc1F
2,> 100 µM (inactive),COc1ccccc1CNC(=O)CCNS(=O)(=O)c1ccc2[nH]c(=O)oc2c1
3,> 100 µM (inactive),N#Cc1c(SCC(=O)Nc2ccccc2C(F)(F)F)sc2c(O)cc(=O)[nH]c12
4,> 100 µM (inactive),COc1ccc(CNC(=O)CSc2sc3c(O)cc(=O)[nH]c3c2C#N)cc1
5,> 100 µM (inactive),CC(C(=O)NCCc1ccc(O)cc1)N1C(=O)/C(=C/c2ccco2)SC1=S (stereo unspecified)
6,> 100 µM (inactive),O=C(CN1C(=O)/C(=C/c2ccco2)SC1=S)NCCc1ccc(O)cc1
7,> 100 µM (inactive),CSc1cccc(NC(=O)CCNS(=O)(=O)c2ccc3[nH]c(=O)oc3c2)c1
8,> 100 µM (inactive),N#Cc1cccc(NC(=O)CCNS(=O)(=O)c2ccc3[nH]c(=O)oc3c2)c1
9,> 100 µM (inactive),Cc1cc(=O)oc2cc(NC(=S)NCCC(c3ccccc3)c3ccccc3)ccc12
10,> 100 µM (inactive),CC(C)c1ccc(NC(=O)CCNS(=O)(=O)c2ccc3[nH]c(=O)oc3c2)cc1
11,> 100 µM (inactive),COc1ccc(OC)c(NC(=O)CCNS(=O)(=O)c2ccc3[nH]c(=O)oc3c2)c1
12,> 100 µM (inactive),O=C(c1ccco1)N1CCN(S(=O)(=O)c2ccc3[nH]c(=O)oc3c2)CC1
13,> 100 µM (inactive),O=C(CCNS(=O)(=O)c1ccc2[nH]c(=O)oc2c1)Nc1cccc(-c2ccno2)c1
14,> 100 µM (inactive),Cc1ccc(C)c(NC(=O)CCNS(=O)(=O)c2ccc3[nH]c(=O)oc3c2)c1
15,> 100 µM (inactive),O=C(NCCc1ccc(Cl)cc1)C1CCCN(S(=O)(=O)c2ccc3[nH]c(=O)oc3c2)C1 (stereo unspecified)
16,> 100 µM (inactive),Cc1ccc(NC(=O)CCNS(=O)(=O)c2ccc3[nH]c(=O)oc3c2)cc1N(C)C
17,> 100 µM (inactive),CCOc1ccccc1CNC(=O)CCNS(=O)(=O)c1ccc2[nH]c(=O)oc2c1
18,> 100 µM (inactive),CCOC(=O)N1CCN(S(=O)(=O)c2ccc3[nH]c(=O)oc3c2)CC1
